Data from ChEMBL document CHEMBL1144305, “Benzimidazole derivatives as novel nonpeptide luteinizing hormone-releasing hormone (LHRH) antagonists. Part 2: Benzimidazole-5-sulfonamides” (Bioorg Med Chem Lett, 2005).

Tests used:
[1] = target: T1, Gonadotropin-releasing hormone receptor (Rattus norvegicus, UniProt P30969); assay: Inhibitory concentration towards rat leutinizing releasing hormone receptor
T1 sequence (P30969 whole entry): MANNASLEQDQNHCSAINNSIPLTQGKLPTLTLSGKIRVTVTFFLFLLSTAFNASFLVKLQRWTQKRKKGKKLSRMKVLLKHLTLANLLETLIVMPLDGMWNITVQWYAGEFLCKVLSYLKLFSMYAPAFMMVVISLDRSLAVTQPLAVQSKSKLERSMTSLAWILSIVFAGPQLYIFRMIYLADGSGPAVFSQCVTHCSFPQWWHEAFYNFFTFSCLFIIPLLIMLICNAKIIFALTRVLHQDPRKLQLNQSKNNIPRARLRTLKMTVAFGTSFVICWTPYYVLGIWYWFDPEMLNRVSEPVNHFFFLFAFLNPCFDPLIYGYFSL

[2] = target: T2, Gonadotropin-releasing hormone receptor (Homo sapiens, UniProt P30968); assay: Inhibitory concentration towards human leutinizing releasing hormone receptor
T2 sequence (P30968 whole entry): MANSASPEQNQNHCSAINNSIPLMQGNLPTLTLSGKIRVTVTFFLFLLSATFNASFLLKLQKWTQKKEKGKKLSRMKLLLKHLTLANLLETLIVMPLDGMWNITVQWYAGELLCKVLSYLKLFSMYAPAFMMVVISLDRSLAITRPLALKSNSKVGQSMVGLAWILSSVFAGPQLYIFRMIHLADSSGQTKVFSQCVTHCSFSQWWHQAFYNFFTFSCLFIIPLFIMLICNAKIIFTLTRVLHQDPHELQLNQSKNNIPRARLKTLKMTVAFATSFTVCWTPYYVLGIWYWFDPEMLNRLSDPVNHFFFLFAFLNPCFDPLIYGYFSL

IC50 [1] [nM] | IC50 [2] [nM] | Structure (SMILES)
> 10000 | > 10000 | CCCc1nc2cc(S(=O)(=O)NCc3ccc(F)cc3)ccc2n1Cc1ccccc1
110 | 170 | CC(C)(C)NC(=O)NCCc1nc2cc(S(=O)(=O)NCc3ccc(F)c(F)c3)ccc2n1Cc1ccccc1
51 | 57 | CC(C)(C)NC(=O)NCCc1nc2cc(S(=O)(=O)NCc3ccc(C(F)(F)F)c(F)c3)ccc2n1Cc1ccccc1
79 | 150 | CC(C)NC(=O)NCCc1nc2cc(S(=O)(=O)NCc3ccc(F)cc3)ccc2n1Cc1ccccc1
3.9 | 4.2 | CC(C)(C)NC(=O)NCCc1nc2cc(S(=O)(=O)NCc3ccc(Cl)cc3)ccc2n1Cc1ccccc1
30 | 110 | CC(C)(C)CNC(=O)NCCc1nc2cc(S(=O)(=O)NCc3ccc(F)cc3)ccc2n1Cc1ccccc1
230 | 400 | CC(C)(C)NC(=O)CCCc1nc2cc(S(=O)(=O)NCc3ccc(F)cc3)ccc2n1Cc1ccccc1
> 10000 | > 10000 | NCCc1nc2cc(S(=O)(=O)NCc3ccc(F)cc3)ccc2n1Cc1ccccc1
50 | 83 | O=C(NCCc1nc2cc(S(=O)(=O)NCc3ccc(F)cc3)ccc2n1Cc1ccccc1)Nc1ccccc1Cl
12 | 20 | CC(C)(C)NC(=O)NCCc1nc2cc(S(=O)(=O)NCc3ccc(F)cc3)ccc2n1Cc1ccccc1
83 | 180 | CC(C)(C)NC(=O)NCCCc1nc2cc(S(=O)(=O)NCc3ccc(F)cc3)ccc2n1Cc1ccccc1
310 | 490 | CC(C)(C)NC(=O)NCCc1nc2cc(S(=O)(=O)NCc3ccccc3)ccc2n1Cc1ccccc1

Continued, compound first:

Structure (SMILES) | IC50 [1] [nM] | IC50 [2] [nM]
CC(C)c1nc2cc(S(=O)(=O)NCc3ccc(F)cc3)ccc2n1Cc1ccccc1 | 690 | 390
CC(C)(C)NC(=O)NCCc1nc2cc(S(=O)(=O)NCc3ccccc3F)ccc2n1Cc1ccccc1 | 450 | 750
COc1ccc(CNS(=O)(=O)c2ccc3c(c2)nc(CCNC(=O)NC(C)(C)C)n3Cc2ccccc2)cc1 | 200 | 340
CC(C)(C)OC(=O)NCCc1nc2cc(S(=O)(=O)NCc3ccc(F)cc3)ccc2n1Cc1ccccc1 | 540 | 740
CC(C)(C)NC(=O)NCCc1nc2cc(S(=O)(=O)NCc3ccc(Cl)cc3Cl)ccc2n1Cc1ccccc1 | 14 | 22
CCNC(=O)NCCc1nc2cc(S(=O)(=O)NCc3ccc(F)cc3)ccc2n1Cc1ccccc1 | 380 | 690
O=S(=O)(NCc1ccc(F)cc1)c1ccc2c(c1)nc(C1CC1)n2Cc1ccccc1 | 1600 | 1900
CC(C)(C)CC(=O)NCCc1nc2cc(S(=O)(=O)NCc3ccc(F)cc3)ccc2n1Cc1ccccc1 | 840 | 2600
O=C(NCCc1nc2cc(S(=O)(=O)NCc3ccc(F)cc3)ccc2n1Cc1ccccc1)Nc1ccccc1F | 53 | 66
